What was measured:
[1] = system: dyskinesias induced by L-DOPA in rats; test: Study of dyskinesias induced by L-DOPA (6-OHDA-lesioned dyskinetic rats), score of abnormal and involuntary movements; format: in vivo, rat; conditions: for effect on rats suffering from induced dyskinesia: oral 10 and 30 mg/kg, dose-dependent, statistically significant effectiveness
Description: Principle of the In Vivo Test (Experimental Model with Dyskinetic Rats):
An animal model is produced where the dyskinesia is induced in animals treated with L-Dopa (3-(3,4-dihydroxyphenyl)-L-alanine). First of all in order to cause a reduction in the level of endogenous dopamine at the level of the striatum, lesions are produced in the rats using 6-hydroxydopamine (6-OHDA). Following this injection of 6-OHDA, these animals become sensitive to the side-effects of L-dopa. In fact in order to remedy this endogenous dopamine deficiency, the rats receive an L-Dopa based treatment. […] The dyskinesia thus induced is evaluated by a statistical behaviour test.
In fact the L-Dopa passes through the hematoencephalic barrier with difficulty and therefore it can be decarboxylated at the peripheral level.
The study was carried out on young male rats. The rats are anaesthetized (chloral 400 mg/kg). Then they receive 2 stereotaxic injections of 6 μg of 6-hydroxydopamine in the left striatum using a 10 μl Hamilton microsyringe. The rats receive in fine 12 μg of 6-OHDA dissolved in 4 μl of 0.02% L-ascorbate. Four weeks later the lesion to the locus niger is produced in the rats. In order to quantify this lesion, an indirect measurement is used: the rotations induced by apomorphine (substance test). The animals receive a sub-cutaneous injection of 0.5 mg/kg of apomorphine and the right and left rotations of the animals are measured over 30 minutes. A net rotational asymmetry score is then determined. This score is expressed as the number of complete turns in the test cage/minute in the contralateral direction of the lesion.
Six weeks after the 6-hydroxydopamine (6-OHDA) lesions, the selected rats receive a daily intraperitoneal injection of L-Dopa methylester at a dose of 20 mg/kg and benserazide at a dose of 15 mg/kg. The injections take place from week 6 to week 9. From week 10, the rats receive a more concentrated dose: each day they receive an intraperitoneal injection of L-Dopa methylester at a dose of 25 mg/kg and benserazide at a dose of 15 mg/kg. From week 11, the rats receive two daily injections of L-Dopa methylester at a dose of 15 mg/kg and benserazide at a dose of 15 mg/kg. During week 11, the rats are evaluated 3 times per week for their level of abnormal and involuntary movements in order to determine whether the administered doses are sufficient to cause a dyskinesia in these animals. The rats are observed individually from 30 minutes to 180 minutes after injection of the L-Dopa; they are observed every 30 minutes. The movements which are observed at that time are considered to be dyskinetic movements when they meet the following criteria: • the movements are induced by the L-Dopa; • the movements affect the side of the body in the contralateral direction of the lesion; • the movements are repetitive, involuntary and cannot be attributed to normal behaviour.
The abnormal and involuntary movements are classified in 4 sub-types: • locomotive dyskinesia: increase in locomotion of the side contralateral to the lesion; • axial dystonia: deviation of the posture of the neck and of the upper part of the body; • oromandibular dyskinesia: stereotypical movements of the jaws and protrusion of the tongue; • dyskinesia of the anterior limbs: repetitive and rhythmic jerking of the anterior limbs accompanied by a dystonic posture and/or strong grasping movements of the paws.
For each of these sub-types, the rats are marked on a scale of 0 to 4, knowing that: • 0=no movement, • 1=occasional movements, • 2=frequent movements, • 3=continuous movements but interrupted by a sensory distraction, • 4=continuous, acute movements, not interrupted by a sensory distraction.
The compounds according to the invention are tested in order to determine their ability to modulate the effects of the L-Dopa.

[2] = system: tardive orofacial dyskinesia caused by haloperidol in rats; test: Study of tardive dyskinesia in rats treated with a neuroleptic (haloperidol) over a long period, count of tongue protrusions and mastication movements; format: in vivo, rat; conditions: for effect on rats suffering from tardive dyskinesia and tardive orofacial dyskinesia caused by haloperidol: oral 10 and 30 mg/kg, dose-dependent effectiveness
Description: Principle of the In Vivo Test (Experimental Model with Rats): […] dyskinesia is a complication resulting from prolonged treatment with for example neuroleptics. It is characterized by repetitive, involuntary movements of the mouth, face and tongue. Long-term treatment with neuroleptics can lead to oromandibular dyskinesia, in particular it can lead to movements of mastication and protrusion of the tongue in rats. The principle of the test is to quantify the abnormal movements of the animals in a test cage during a determined time window (5 minutes). A neuroleptic, haloperidol (originating from Sigma®), is administered over a long period to rats using an Alzet® osmotic pump. This osmotic pump (reference 2ML4 Alzet®) is filled with a solution of haloperidol at 10 mg/ml. This pump is implanted subcutaneously in rats weighing between 150 g and 160 g. After anaesthesia of the rats with isoflurane, a small incision is made in the skin at the level of the scapulae to allow insertion of the pump. Then the incision is sutured. The pump makes it possible to continuously administer haloperidol to the rats at a dose of 2 mg/kg/day for 28 days. […] Before the treatment (t=0) with the compounds to be tested, the rats are placed individually in plastic test cages. […] Results: The rate of protrusion of the tongue and mastication movements is calculated statistically for each group of rats. […] The results presented were obtained with 8 tested animals.

[3] = 30 mg/kg orally, 120 minutes after the administration of L-Dopa, control (water) 12 (compound 1) and 12.9 (compound 2)
[4] = 30 mg/kg orally, after 180 minutes of treatment, reduced from 11.3 (compound 1) and from 13.8 (compound 2)

SMILES	score of abnormal and involuntary movements (dyskinesia score, maximum 16 points) [1, 3] [points]	score of abnormal and involuntary movements (dyskinesia score, maximum 16 points) [1, 4] [points]	effect on rats suffering from induced dyskinesia [1]	score of chewing movements ([2]; 10 mg/kg orally, counted for 5 minutes, reduced from 30.3)	score of chewing movements ([2]; 30 mg/kg orally, counted for 5 minutes, reduced from 35.6)	effect on rats suffering from tardive dyskinesia and tardive orofacial dyskinesia caused by haloperidol [2]	score of abnormal and involuntary movements (dyskinesia score, maximum 16 points) ([1]; 10 mg/kg orally, after 180 minutes of treatment, reduced from 13) [points]	rate of protrusion of the tongue ([2]; 10 mg/kg orally, after 3 hours, counted for 5 minutes, reduced from 11.4)	rate of protrusion of the tongue ([2]; 30 mg/kg orally, after 3 hours, counted for 5 minutes, reduced from 15)	number of mastication movements ([2]; 30 mg/kg orally, after 3 hours, counted for 5 minutes, reduced from 35.5)
CC(C)(C)c1cc(-c2csc(CN)n2)cc(C(C)(C)C)c1O.Cl [Compound 1, 4-[2-(aminomethyl)-1,3-thiazol-4-yl]-2,6-di(tert-butyl)phenol hydrochloride or dihydrochloride]	10	9.6	anti-dyskinetic effect	21	11.9	anti-dyskinetic effect	–	–	–	–
C[C@@H](N)c1nc(-c2cc(C(C)(C)C)c(O)c(C(C)(C)C)c2)cs1.Cl [Compound 2, 4-{2-[(1R)-1-aminoethyl]-1,3-thiazol-4-yl}-2,6-di-tert-butylphenol hydrochloride]	9.7	9	anti-dyskinetic effect	–	–	anti-dyskinetic effect	10.6	5	6	23.7
